Results on one compound are retold here after patent US11117901B2, “Substituted pyrazolo[4,3-h]quinazolines as choline kinase inhibitors” (NERVIANO MEDICAL SCIENCES S.R.L., priority 2017, dated 2021).

SMILES strings stand for the structures.

One assay addresses T1, Δ49N-hChoKα (Homo sapiens, UniProt P35790).
T1 construct: cDNA fragment 362-1534, corresponding to aminoacids 50 457; GST (N, cleaved yes); PreScission Protease recognition site (N); made in house; host or cells: Escherichia coli BL21pLysS (DE3)
The assay can be described thus: Biochemical kinase inhibition assay (Kinase-Glo luminescent) on Δ49N-hChoKα. Particulars: recombinant Δ49N-hChoKα 2.2 nM, ATP 5 μM, choline 5 μM, 60 min rt; read-out: ChoKα IC50. In a few lines:
(§1)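 Kinase-Glo residual-ATP luminescence with in-house E. coli-expressed, tag-cleaved enzymes: Δ49N-hChoKα 2.2 nM with 5 μM choline; hChoKβ FL 30 nM with 20 μM choline. Both used 5 μM ATP, 60 min at room temperature, 1% DMSO, pH 7.5 Hepes buffer. IC50 from 4-parameter fits of ten 3-fold dilutions from 10 μM.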
On the technique in general: In Kinase-Glo more light means more ATP remaining.

For a further assay, the target named is T2, hChoKβ FL (Homo sapiens, UniProt Q9Y259).
T2 construct: hChoKβ full length (FL), corresponding to aminoacids 2-395; GST (N, cleaved yes); PreScission Protease recognition site (N); made in house; host or cells: Escherichia coli BL21pLysS (DE3)
Description: Biochemical kinase inhibition assay (Kinase-Glo luminescent) on hChoKβ FL. Particulars: recombinant hChoKβ FL 30 nM, ATP 5 μM, choline 20 μM, 60 min rt; read-out: ChoKβ IC50. In a few lines: as §1

Assay [1] deals with [Phosphocholine] in MDA-MB-468 cell extracts. Description: Phosphocholine determination assay in cell extracts (target inhibition in cells). The assay is classed as cell-based. Particulars: Homo sapiens, 24 h treatment, vs untreated control. As for the experimental part:
(§2) For the determination of phosphocholine in cells, extracts were prepared according to ref. Cancer Res., 2005, 65, 9369-9376 with some modifications. MDA-MB-468 breast cancer cell line was plated at 1×10^6 cells in 10 cm petri dish culture in RPMI, 10% FCS culture medium. After 24 h, fresh medium and a compound of general formula (I) were added for further 24 h. At the end of the treatment, the cells were trypsinised, counted and the diameter was determined using a Coulter Counter (Multisizer 3, Beckman). Cells were washed twice with ice-cold physiologic saline solution and 2×10^6 cells resuspended in 0.3 mL ice-cold twice-distilled water. Then, 0.7 mL ice-cold absolut EtOH were added (final ratio EtOH/H2O 70:30, v/v). After 24 h at −20° C. the samples were sonicated and centrifuged at 14,000×g for 30 minutes.
(§3) Phosphocholine concentration levels were assessed in the supernatants using an Ultra High Pressure Liquid Chromatography system (UPLC®, Waters) coupled with a triple quadrupoles mass spectrometer (TQD, Waters) operating in single reaction monitoring mode (SRM). Analyses were performed using Acquity HSS T3 column 2.1×50 mm column, 1.8 μm particle size. Mobile phase A was H2O, modified with 0.15% formic acid, and mobile phase B was MeOH (100% A→97% A over 1 min, flow rate 0.5 mL/min). Waters TQD triple quad mass spectrometer was equipped with an electrospray ion source operating in the positive mode. Source parameters were set as follows: desolvation gas flow 1000 L/h, cone gas flow 50 L/h; collision gas flow 0.2 mL/min; source temperature 130° C.; desolvation temperature 450° C. Dimethyl glicine (DMG) was added to samples as internal standard at 100 μM final concentration. The monitored transitions were m/z 184.00 to 85.7 (collision energy 24 eV) for phosphocholine and m/z 103.0 to 57.5 (collision energy 13 eV) for DMG. The concentration of PCho in the sample was normalized to the total volume of cells (number cells×volume of single cell considered like a sphere).
As an example, the mechanism of action of cpd 39 is reported in Table 2 (Control refers to untreated cells).

For assay [2], the system named is [Phosphocholine] in MDA-MB-468 cell supernatants. Description: Phosphocholine determination in cell culture medium (supernatants). The class given is cell-based. Particulars: Homo sapiens, 24 h treatment, vs untreated control. The protocol:
as §2
as §3, with “Dimethyl glicine (DMG) was added to samples as internal standard at 100 μM final concentration.” left out, “The concentration of PCho in the sample was normalized to the total volume of cells (number cells×volume of single cell considered like a sphere).” left out
For the determination of phosphocholine in cell culture medium, cell culture supernatants (500 μL) were denatured by adding 100 μL of trichloroacetic acid (TCA) 1M containing dimethyl glicine (DMG) (100 μM), used as internal standard. […] The supernatants were subsequently analyzed for phosphocholine determination. […]

T1 sequence (P35790 50-439 isoform P35790-2): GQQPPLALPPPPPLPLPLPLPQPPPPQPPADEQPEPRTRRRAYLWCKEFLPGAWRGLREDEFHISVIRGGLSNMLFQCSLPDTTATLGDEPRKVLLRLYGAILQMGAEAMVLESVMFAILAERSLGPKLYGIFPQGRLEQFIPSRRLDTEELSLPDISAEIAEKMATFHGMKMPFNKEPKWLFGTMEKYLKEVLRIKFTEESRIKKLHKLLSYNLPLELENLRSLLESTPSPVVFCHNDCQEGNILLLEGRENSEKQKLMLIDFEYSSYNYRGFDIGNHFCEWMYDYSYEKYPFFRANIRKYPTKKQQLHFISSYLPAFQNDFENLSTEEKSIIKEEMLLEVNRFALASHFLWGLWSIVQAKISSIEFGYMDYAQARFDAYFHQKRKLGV
T2 sequence (Q9Y259 2-395): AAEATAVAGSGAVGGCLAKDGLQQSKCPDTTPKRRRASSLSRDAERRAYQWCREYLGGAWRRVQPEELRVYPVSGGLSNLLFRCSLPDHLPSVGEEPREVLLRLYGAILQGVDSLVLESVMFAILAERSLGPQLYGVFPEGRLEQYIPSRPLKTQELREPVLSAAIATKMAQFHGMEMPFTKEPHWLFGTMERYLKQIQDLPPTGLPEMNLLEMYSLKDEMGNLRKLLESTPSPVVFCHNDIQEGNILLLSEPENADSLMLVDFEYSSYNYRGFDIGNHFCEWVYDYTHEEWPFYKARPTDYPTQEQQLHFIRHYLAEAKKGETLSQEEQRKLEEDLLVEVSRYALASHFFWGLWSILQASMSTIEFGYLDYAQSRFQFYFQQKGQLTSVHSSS

Take `CC1(C)Cc2cnc(N)nc2-c2[nH]nc(C(=O)Nc3nc(CC(=O)N4CCC(N5CCCCC5)CC4)cs3)c21` [compound 39]: the IC50 – broadly, the point on the concentration scale where inhibition reaches its midpoint – stood at 2 nM on Δ49N-hChoKα and 84 nM at hChoKβ FL. Besides, the inhibition (commonly the relative decrease from the control value, in per cent) at 0.08 µM in assay [1] (0.08 μM compound) was 35%; in assay [2] (0.08 μM compound), 42%. The values for the inhibition at 0.4 µM in assay [1] (0.4 μM compound) and in assay [2] (0.4 μM compound) were 87% and 85%, respectively. For the same compound, the inhibition at 2 µM in assay [1] (2 μM compound) worked out at 98%; in assay [2] (2 μM compound) it was 88%.
